Read-outs that look alike come from different tables or passages of the source. Marks after values point to notes of the source that are not given here.

Consider one compound from patent US6800651B2 (Eli Lilly and Company, priority 2000, dated 2004).

Assay [1] has as its system Harlan Sprague-Dawley rats. The experiment in a line: Animal model of dural protein extravasation (trigeminal ganglion stimulation). It is filed as in vivo. Conditions: rat, ratio stimulated/unstimulated side of dura. The protocol: Harlan Sprague-Dawley rats (250-350 g) were anesthetized with sodium pentobarbital intraperitoneally (65 mg/kg) and placed in a stereotaxic frame (David Kopf Instruments) with the incisor bar set at −3.5 mm. Following a midline sagital scalp incision, two pairs of bilateral holes were drilled through the skull (6 mm posterially, 2.0 and 4.0 mm laterally, all coordinates referenced to bregma). Pairs of stainless steel stimulating electrodes, insulated except at the tips (Rhodes Medical Systems, Inc.), were lowered through the holes in both hemispheres to a depth of 9 mm. The femoral vein was exposed and a dose of the test compound was injected intravenously (i.v.) at a dosing volume of 1 ml/kg or, in the alternative, test compound was administered orally (p.o.) via gavage at a volume of 2 ml/kg. Approximately 8 minutes post i.v. injection, a 50 mg/kg dose of Evans Blue, a fluorescent dye, was also injected intravenously. The Evans Blue complexed with proteins in the blood and functioned as a marker for protein extravasation. […] Fifteen minutes following stimulation, the animals were killed and exsanguinated with 40 mL of saline. The top of the skull was removed to facilitate the collection of the dural membranes. The membrane samples were removed from both hemispheres, rinsed with water, and spread flat on microscopic slides. […] A fluorescence microscope (Zeiss) equipped with a grating monochromator and a spectrophotometer was used to quantify the amount of Evans Blue dye in each sample. An excitation wavelength of approximately 535 nm was utilized and the emission intensity at 600 nm was determined. The microscope was equipped with a motorized stage and also interfaced with a personal computer. This facilitated the computer-controlled movement of the stage with fluorescence measurements at 25 points ([…]) on each dural sample. The mean and standard deviation of the measurements were determined by the computer. The extravasation induced by the electrical stimulation of the trigeminal ganglion was an ipsilateral effect (i.e. occurs only on the side of the dura in which the trigeminal ganglion was stimulated). This allows the other (unstimulated) half of the dura to be used as a control. The ratio of the amount of extravasation in the dura from the stimulated side, over the amount of extravasation in the unstimulated side, was calculated.

In assay [2] the target is T1, mGlu2 receptor (Homo sapiens, UniProt Q14416). The experiment in a line: Potentiation of glutamate-induced increase in intracellular calcium with a mGluR2 expressing cell line (FLIPR). It is filed as cell-based. Also noted: expressed in transfected cells; host or cells: RGT cells (co-transfected with GLAST), stably transfected with Galpha15. Conditions: read-out: % Maximal Response (mean ± SD, n=2). On the procedure:
Potentiation of Glutamate-Induced Increase in Intracellular Calcium with a mGluR2 Expressing Cell Line.
Cell lines expressing human mGlu2 receptors were derived as previously described (Desai, Burnett, Mayne, Schoepp, Mol. Pharmacol. 48, 648-657, 1995) and cultured in DMEM with 5% dialyzed fetal bovine serum, 1 mM glutamine, 1 mM sodium pyruvate, 50 μg/ml Geneticin G418, and 0.2 mg/ml hygromycin B. Confluent cultures were passaged weekly. […] The RGT cell line expressing the mGluR2 receptors was stably transfected with the promiscuous G-protein, Galpha15 to change the signaling pathway to the mGlu2 receptor to one that could be easily measured through release of intracellular calcium. Thus, intracellular calcium levels were monitored before and after the addition of drugs on a Fluorometric Imaging Plate Reader (i.e. FLIPR, Molecular Devices). The following buffer was used throughout as an assay buffer: 10 mM KCl, 138 mM NaCl, 5 mM Ca Cl2, 1 mM MgCl2, 4 mM NaH2PO4, 10 mM Glucose, 10 mM HEPES, pH 7.4. Cells that had been plated 48 h prior at a density of 30-40,000 cells per well in a 96-well plate were loaded with a calcium-sensitive dye for 90 min at 25° C. Fluo-3 (2 mM in DMSO, Molecular Probes) were mixed with a equal volume of 10% pluronic acid in DMSO, and diluted to 8 μM into the buffer described above containing 10% fetal bovine serum to make the loading buffer. Following loading of the cells, the loading buffer was removed and replaced with assay buffer prior to drug addition and monitoring on the FLIPR.
For orientation: Calcium flux is commonly read through the fluorescence of an indicator in the cells.

In assay [3] the target is T1, mGlu2 receptor. The experiment in a line: [3H]-2S-2-Amino-2-(1S,2S-2-carboxycyclopropan-1-yl)-3-(xanth-9-yl) propionic acid receptor binding (displacement), membranes of mGlu2 receptor expressing RGT cells. Also noted: expressed in transfected cells; host or cells: RGT cells (co-transfected with the rat glutamate/aspartate transporter GLAST); washed membranes. Particulars: displacement of 1 nM [3H]-2S-2-amino-2-(1S,2S-2-carboxycyclopropan-1-yl)-3-(xanth-9-yl)propionic acid; homogenates of mGlu2 receptor expressing cell line.
Description: Membranes from mGlu2 receptor expressing RGT cells were prepared by harvesting adherent cells from confluent T-150 flasks with a cell scraper. Cells and media were then placed in 50 ml conical tubes and centrifuged at 4° C. at 1000 g for 5 minutes. The supernatant was removed and the pellet was frozen at −10° C. until use. Washed cell membranes were prepared by adding 20 ml of 10 mM potassium phosphate buffer pH 7.6 @ 5° C.+100 mM potassium bromide and homogenizing with an Ultra-Turrax tissuemizer for 15 seconds at 90% output. The homogenate was centrifuged at 48,000×g for 10 minutes at 5° C. This last step was repeated two times, and the final pellet was resuspended in 10 ml of the same buffer and reserved on ice until initiating the binding assay.
The incubation was initiated by the addition of the membrane suspension, (about 15 μg membrane protein), and allowed to continue on ice for 30 min. Incubation was terminated by rapid filtration with a Brandel cell harvester through glass fiber Whatman GF/B filters pre-wet with the same potassium phosphate buffer assay buffer (at 4° C.). The filters were washed five times with 1 ml of buffer. Filter sections were transferred to minivials and 5 ml of Fisher Scientific ScintiSafe liquid scintillation cocktail was added to each vial. Vials were allowed to set for several hours prior to counting on a Beckman LS6000 liquid scintillation counter.

A further assay concerns Male Sprague-Dawley rats. The experiment in a line: Fear potentiated startle paradigm. It is filed as in vivo. Particulars: rat. On the procedure: Male Sprague-Dawley rats weighing 325-400 g were purchased from Harlan Sprague-Dawley, Inc. (Cumberland, Ind.) and given a one week acclimation period before testing. Rats were individually housed with food and water ad libitum in an animal room on a 12-hour light/dark cycle with lights on between 6:00 A.M. and 6:00 P.M. […] Control rats were given the respective vehicle. The fear potentiated startle paradigm is conducted over three consecutive days. All three days begin with a 5-minute adaptation period before the trial starts. On day one (baseline startle) after the adaptation period, the animal receives 30 trials of 120 dB auditory noise. The mean startle amplitude (Vmax) is used to assign animals to groups with similar means before conditioning begins. Day two consists of conditioning the animals. Each animal receives 0.5 mA of shock for 500 msec preceded by a 5 second presentation of light which remains on for the duration of the shock. Ten presentations of the light and shock are administered. Day three is the testing trial where drug administration occurs prior to testing. Twenty-four hours after conditioning, startle testing sessions are conducted. Ten trials of acoustic startle (120 dB), non-light paired, are presented at the beginning of the session. This is followed by 20 random trials of the noise alone and 20 random trials of noise preceded by light. […] Data is presented as the difference between light+noise and noise-alone. Differences in startle response amplitudes were analyzed by JMP statistical software using a One-way Anova (analysis of variance, t-test). Group differences were considered to be significant at p<0.05. In the experiment shown below the compound of Example 16 was given i.p. 30 minutes prior to testing.

T1 sequence (Q14416 19-872): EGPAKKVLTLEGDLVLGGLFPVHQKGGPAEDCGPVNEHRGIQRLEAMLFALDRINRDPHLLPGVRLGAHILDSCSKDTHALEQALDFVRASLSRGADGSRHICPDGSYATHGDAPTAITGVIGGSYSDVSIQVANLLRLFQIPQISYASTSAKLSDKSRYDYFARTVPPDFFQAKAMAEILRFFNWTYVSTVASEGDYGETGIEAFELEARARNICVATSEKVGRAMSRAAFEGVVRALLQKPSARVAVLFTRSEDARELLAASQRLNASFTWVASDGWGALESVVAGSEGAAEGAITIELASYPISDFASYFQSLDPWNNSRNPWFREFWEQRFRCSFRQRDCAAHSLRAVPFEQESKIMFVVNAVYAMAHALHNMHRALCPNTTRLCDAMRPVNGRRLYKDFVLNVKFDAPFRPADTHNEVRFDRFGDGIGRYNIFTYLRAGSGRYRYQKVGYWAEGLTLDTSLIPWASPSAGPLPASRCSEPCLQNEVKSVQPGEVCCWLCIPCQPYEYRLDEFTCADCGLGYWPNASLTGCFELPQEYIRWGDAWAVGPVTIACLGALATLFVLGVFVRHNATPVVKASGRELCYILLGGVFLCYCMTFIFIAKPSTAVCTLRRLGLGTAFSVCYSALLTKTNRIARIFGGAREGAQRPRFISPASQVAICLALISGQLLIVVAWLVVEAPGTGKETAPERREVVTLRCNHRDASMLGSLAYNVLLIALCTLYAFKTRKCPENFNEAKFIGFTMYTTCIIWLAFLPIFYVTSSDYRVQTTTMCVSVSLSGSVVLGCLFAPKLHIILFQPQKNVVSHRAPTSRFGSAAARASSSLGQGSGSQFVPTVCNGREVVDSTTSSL

With `COc1ccccc1Oc1ccc(N(Cc2cccnc2)S(=O)(=O)CC(F)(F)F)cc1` [Example 16, N-(4-(2-Methoxyphenoxy)phenyl)-N-(2,2,2-trifluoroethylsulfonyl)pyrid-3-ylmethylamine], the “Extrav. Ratio ± s.e.m.” value in assay [1] (10 pg/kg i.v.) turned out to be 1.87 ± 0.07; in assay [1] (100 pg/kg i.v.) it was 1.37 ± 0.07; in assay [1] (1 ng/kg i.v.), 1.04 ± 0.05; in assay [1] (100 ng/kg i.v.) it was 0.99 ± 0.004. In addition, the Emax on mGlu2 receptor [2] (8 nM Glutamate + 1 μM compound) was determined as 2.8 ± 1.9%; on mGlu2 receptor [2] (24 nM Glutamate + 1 μM compound), 0.1 ± 0.8%; at mGlu2 receptor [2] (80 nM Glutamate + 1 μM compound) it was 0.3 ± 1.1%; on mGlu2 receptor [2] (240 nM Glutamate + 1 μM compound), 17.4 ± 2.8%; on mGlu2 receptor [2] (800 nM Glutamate + 1 μM compound), 62.9 ± 0.1%; at mGlu2 receptor [2] (2.4 μM Glutamate + 1 μM compound), 92.5 ± 4.4%. Further, the Emax turned out to be 98.4 ± 6.4% on mGlu2 receptor [2] (8 μM Glutamate + 1 μM compound) and 95.4 ± 2.4% at mGlu2 receptor [2] (24 μM Glutamate + 1 μM compound). The Emax at 1 µM at mGlu2 receptor [2] (1 μM compound, Buffer (no agonist), glutamate series 24 μM to 8 nM) turned out to be 1.6 ± 1%. At mGlu2 receptor [3], this compound gave an inhibition constant (Ki) greater than 100 µM. Also, the “Difference in Startle Amplitude (Vmax) + S.E.” value is 108 + 41 in the assay on Male Sprague-Dawley rats (Exp. 1, 0.03 mg/kg i.p. 30 minutes prior to testing, light+noise minus noise-alone); 154 + 38 in the assay on Male Sprague-Dawley rats (Exp. 1, 0.3 mg/kg i.p. 30 minutes prior to testing); 21 + 24* with Male Sprague-Dawley rats (Exp. 1, 3.0 mg/kg i.p. 30 minutes prior to testing); 120 + 87* in the assay with Male Sprague-Dawley rats (Exp. 2, 1.0 mg/kg i.p. 30 minutes prior to testing); 148 + 86* with Male Sprague-Dawley rats (Exp. 2, 3.0 mg/kg i.p. 30 minutes prior to testing); 105 + 91* in the assay on Male Sprague-Dawley rats (Exp. 2, 10.0 mg/kg i.p. 30 minutes prior to testing).

By Ki is commonly meant a measure of affinity in units of concentration, obtained from inhibition or displacement. Read a high Ki as lower affinity.
